Measured values taken from patent publication US20070020334A1, “Benzimidazole formulation” (priority 2005, published 2007).
Read-outs that look alike come from different tables or passages of the source.

Key:
[1] = cited from earlier work; for pKa2 / pKa3 / pKa: approximate; for pKa: pKa of the acid
[2] = Particle size by laser light scattering (Malvern); type: physicochemical; conditions: raw material of Table 7
Protocol: Samples have been dried for minimum 12 hours at 40° C. prior to the measurements.

Row | SMILES | pKa2 [1] | pKa3 [1] | pKa [1] | other results
1 | N=C(N)NCCC[C@H](N)C(=O)O [Arginine] | pKa2: 9.1 | pKa3: 13.2 | – | pH ([1]; 100 g/L H2O): pH≈11.4
2 | O=C([O-])[O-].[Ca+2] [Calcium carbonate] | – | – | 10.3 | –
3 | O=C([O-])[O-].[Na+].[Na+] [DiSodium carbonate] | – | – | 10.3 | –
4 | N[C@@H](Cc1c[nH]cn1)C(=O)O [Histidine] | – | pKa3: 9.0 | – | pH ([1]; 10 g/L H2O): pH≈7.7
5 | NCCCC[C@H](N)C(=O)O [Lysine] | pKa2: 8.9 | – | – | –
6 | COc1ccnc(C[S+]([O-])c2nc3ccc(OC(F)F)cc3[nH]2)c1OC (stereo not drawn) [Pantoprazole sodium sesquihydrate] | – | – | – | D(v; 0.5) [2]: 7 μm
